Test system: Escherichia coli K-12 MG1655 knockout mutants
Experiment: Growth Profiler growth screening of K-12 MG1655 single, double and triple knockout mutants in glutaric or adipic acid
Assay type: cell-based
Experimental: Five colonies from wild-type K-12 MG1655 and 10 individual colonies deriving from each population were inoculated into 300 μL M9+1% glucose in 96 well deepwell plates and incubated in a 300 rpm plate shaker at 37° C. The next day, cells were diluted 10× in M9+1% glucose and 30 μL was transferred into clear-bottomed 96 well half-deepwell plates (with rectangular wells) containing M9+1% glucose and M9+1% glucose+52.78 g/L glutaric acid or 55.56 g/L adipic acid, such that the final concentration of glutaric acid or adipic acid was 47.5 g/L or 50 g/L, respectively. In addition, cryogenic glycerol stocks of the overnight culture were saved in a 96 well plate format. Half deepwell plates were incubated at 37° C. with 225 rpm shaking in a Growth Profiler (Enzyscreen), with optical scans of the plates taken at 15 minute intervals. Green pixel values integrated over a 1 mm diameter circular area in each well were converted to OD600 values using a previously determined calibration between OD600 and green pixel values. […] In general, it was attempted to select three isolates per population for further analysis, and all populations were represented in the resequenced isolates.
Selected isolates from the primary screen were restruck onto LB agar from the cryogenic stock made from the overnight culture plate for the primary screen. Five K-12 MG1655 colonies and three individual colonies from each isolate were inoculated as biological replicates into a new 96 well deepwell plate containing 300 μL of M9+1% glucose, and grown overnight as for the primary screen. The next day, a cryogenic stock and half deepwell plates containing M9+1% glucose with or without glutaric acid or adipic acid were inoculated using the plate of overnight cultures, and growth was measured as described for the primary screen.
Probable important losses-of-function were determined by identifying genes across all isolates that harboured mutations, especially those occurring in multiple populations, and by the presence of at least one mutation that either generated a premature stop codon, a frameshift mutation, or the presence of an insertion element sequence within the gene. For those genes, the corresponding knockout strain from the Keio collection of single knockout mutants (where each gene is replaced with a cassette consisting of a kanamycin resistance gene flanked by FRT sites) was used as a donor strain for P1vir phage transduction. Briefly, the Keio strain was grown to early exponential phase in LB+5 mM CaCl2 and 80 μL of a P1vir stock raised on K-12 MG1655 was added. After significant lysis was observed after 1.5 to 2 hours, the lysate was filter-sterilized to remove cells and stored at 4° C. Strain K-12 MG1655 was grown overnight in LB+5 mM CaCl2) and 100 μL of the overnight culture was mixed with 100 μL of the P1vir lysate of the Keio collection mutant, and the mixture was incubated at 37° C. without shaking for 20 minutes. The entire mixture was then plated on LB agar containing 1.25 mM sodium pyrophosphate as a chelating agent and 25 μg/mL kanamycin. One colony was then restruck on LB+1.25 mM […]+25 μg/mL kanamycin plate and analyzed for presence of the Keio cassette in place of the wild-type gene by colony PCR. When further knockouts were constructed in the same strain, the Keio cassette was flipped out to generate a scar sequence such that Kan^R marker could be recycled. […]

[1] = strain MG1655 ΔkgtP proV::kan, M9 + 50 g/L adipate (neutralized)

Structure (SMILES) | mean growth rate μ [1] [h⁻¹] | mean lag time tlag [1] [h] | mean growth rate μ (strain MG1655 ΔkgtP sspA::kan, M9 + 50 g/L adipate (neutralized)) [h⁻¹] | mean lag time tlag (strain MG1655 ΔkgtP proV::kan, M9 + 47.5 g/L glutarate (neutralized)) [h] | mean growth rate μ (strain MG1655 ΔkgtP sspA::kan, M9 + 47.5 g/L glutarate (neutralized)) [h⁻¹]
O=C(O)CCCCC(=O)O [adipic acid] | 0.264 | 16.5 | 0.117 |  | 
O=C(O)CCCC(=O)O [glutaric acid] |  |  |  | 13.0 | 0.225
